These results are taken from patent publication US20200216439A1, “HETERO-1,5,6,7-TETRAHYDRO-4H-INDOL-4-ONES” (BAYER PHARMA AKTIENGESELLSCHAFT, priority 2015, published 2020).

SMILES strings stand for the structures.

In this test the target is T1, catalytic domain of human Bub1 (amino acids 704-1085) (Homo sapiens, UniProt O43683).
T1 construct: catalytic domain of human Bub1 (amino acids 704-1085); His6 (N); made in house; host or cells: Hi5 insect cells
Kind of test: Bub1 kinase assay (TR-FRET). The conditions noted are these: TR-FRET; ATP 10 μM, peptide substrate 1 μM; 60 min at 22° C.; average or median if tested more than once; read-out: Inhibition of Bub1 kinase IC50. Format: biochemical. Put shortly: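 Eleven concentrations (0.1 nM–20 μM, duplicate) fitted by 4-parameter logistic for IC50. Read-out: EDTA-stopped TR-FRET (665/620 nm) detecting anti-phosphoserine binding to biotin-peptide (1 μM). Reaction used 10 μM ATP, 60 min at 22 °C, after 15 min compound preincubation with His-tagged human Bub1 704-1085.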
Background: Time-resolved FRET reads energy transfer from a long-lived donor to a nearby acceptor.

T1 sequence (O43683 704-1085): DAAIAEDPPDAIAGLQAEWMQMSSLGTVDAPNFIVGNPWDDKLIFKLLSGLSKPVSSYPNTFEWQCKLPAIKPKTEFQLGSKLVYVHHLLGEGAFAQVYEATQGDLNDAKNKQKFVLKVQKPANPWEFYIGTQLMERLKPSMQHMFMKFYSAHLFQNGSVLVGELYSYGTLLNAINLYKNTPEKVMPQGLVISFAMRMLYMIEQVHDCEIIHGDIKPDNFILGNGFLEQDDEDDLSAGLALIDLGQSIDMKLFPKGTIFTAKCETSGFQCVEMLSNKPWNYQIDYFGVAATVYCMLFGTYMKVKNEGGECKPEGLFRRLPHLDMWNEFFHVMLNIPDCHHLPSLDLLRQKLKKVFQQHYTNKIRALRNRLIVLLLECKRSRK

As a reminder, the IC50 is the midpoint of a concentration-inhibition curve. With `CC(C)(F)C(=O)Nc1cc(-c2[nH]c3c(c2Nc2ccccc2)C(=O)CN(S(=O)(=O)c2cnc[nH]2)C3)ccn1` [Example 162, N-{4-[3-Anilino-6(1H-imidazol-5-ylsulfonyl)-4-oxo-4,5,6,7-tetrahydro-1H-pyrrolo[2,3-c]pyridin-2-yl]pyridin-2-yl}-2-fluoro-2-methylpropanamide], the IC50 was 38 nM.

As for `COc1cnccc1-c1[nH]c2c(c1Nc1ccccc1)C(=O)CN(S(=O)(=O)CCC(F)(F)F)C2` [Example 111, 2-(3-Methoxypyridin-4-yl)-3-(phenylamino)-6-[(3,3,3-trifluoropropyl)sulfonyl]-1,5,6,7-tetrahydro-4H-pyrrolo[2,3-c]pyridin-4-one], the IC50 came to 7 nM.

On to `NC(CN1CC(=NO)c2c([nH]c(-c3ccncc3)c2Nc2ccccc2)C1)=NO` (mixture of isomers) [Example 218, (1E/Z)—N′-Hydroxy-2-[(4E/Z)-4-(hydroxyimino)-3-(phenylamino)-2-(pyridin-4-yl)-1,4,5,7-tetrahydro-6H-pyrrolo[2,3-c]pyridin-6-yl]ethanimidamide], for which the IC50 stood at 79 nM.

With `CC(=O)Nc1cc(-c2[nH]c3c(c2Nc2ccccn2)C(=O)CN(C(=O)OC(C)(C)C)C3)ccn1` [Example 310, tert-Butyl 2-(2-acetamidopyridin-4-yl)-4-oxo-3-(pyridin-2-ylamino)-1,4,5,7-tetrahydro-6H-pyrrolo[2,3-c]pyridine-6-carboxylate], the IC50 was 79 nM.

With `Cc1cnccc1-c1[nH]c2c(c1Nc1ccccc1)C(=O)CN(C(=O)OC(C)(C)C)C2` [Example 99, tert-Butyl 2-(3-methylpyridin-4-yl)-4-oxo-3-(phenylamino)-1,4,5,7-tetrahydro-6H-pyrrolo[2,3-c]pyridine-6-carboxylate], the half-inhibitory concentration (IC50) came out at 205 nM.

Consider `CC(C)(C)OC(=O)N1CC(=O)c2c([nH]c(-c3ccnc(NC(=O)c4cnn[nH]4)c3)c2Nc2ccccc2)C1` [Example 274, tert-Butyl 4-oxo-3-(phenylamino)-2-2-[(1H-1,2,3-triazol-5-ylcarbonyl)amino]pyridin-4-yl-1,4,5,7-tetrahydro-6H-pyrrolo[2,3-c]pyridine-6-carboxylate], for which the IC50 came out at 10 nM.

For `CC(=O)Nc1cc(-c2[nH]c3c(c2Nc2ccccc2)C(=O)COC3)ccn1` [Example 34, N-{4-[4-Oxo-3-(phenylamino)-1,4,5,7-tetrahydropyrano[3,4-b]pyrrol-2-yl]pyridin-2-yl}acetamide], the half-inhibitory concentration (IC50) worked out at 60 nM.

Turning to `O=C1CN(C(=O)c2ccncc2)Cc2[nH]c(-c3ccnc(NC(=O)[C@@H]4C[C@@H]4F)c3)c(Nc3ccccc3)c21` [Example 200, (1S,2S)-2-Fluoro-N-4-[4-oxo-3-(phenylamino)-6-(pyridin-4-ylcarbonyl)-4,5,6,7-tetrahydro-1H-pyrrolo[2,3-c]pyridin-2-yl]pyridin-2-ylcyclopropanecarboxamide], the IC50 turned out to be 7 nM.

With `COC(=O)N1CC(=O)c2c([nH]c(-c3ccncc3OCC(F)F)c2Nc2ccccc2)C1` [Example 236, Methyl 2-[3-(2,2-difluoroethoxy)pyridin-4-yl]-4-oxo-3-(phenylamino)-1,4,5,7-tetrahydro-6H-pyrrolo[2,3-c]pyridine-6-carboxylate], the IC50 was 16 nM.

As for `Cc1ccc(F)cc1C(=O)Nc1cc(-c2[nH]c3c(c2Nc2ccccc2)C(=O)CNC3)ccn1` [Example 269, 5-Fluoro-2-methyl-N-4-[4-oxo-3-(phenylamino)-4,5,6,7-tetrahydro-1H-pyrrolo[2,3-c]pyridin-2-yl]pyridin-2-ylbenzamide], the IC50 worked out at 149 nM.

On to `Cc1cc(F)ccc1C(=O)Nc1cc(-c2[nH]c3c(c2Nc2ccccc2)C(=O)CNC3)ccn1` [Example 264, 4-Fluoro-2-methyl-N-4-[4-oxo-3-(phenylamino)-4,5,6,7-tetrahydro-1H-pyrrolo[2,3-c]pyridin-2-yl]pyridin-2-ylbenzamide], for which the IC50 amounted to 81 nM.

With `CC(C)OC(=O)N1CC(=O)c2c([nH]c(-c3ccnc(NC(=O)C4(F)CC4)c3)c2Nc2ccccc2)C1` [Example 159, Isopropyl 3-anilino-2-{2-([(1-fluorocyclopropyl)carbonyl]amino}pyridin-4-yl)-4-oxo-1,4,5,7-tetrahydro-6H-pyrrolo[2,3-c]pyridine-6-carboxylate], the IC50 is 22 nM.

On to `CN1CCN(C(=O)N2CC(=O)c3c([nH]c(-c4ccncc4OCC(F)(F)F)c3Nc3ccccc3)C2)CC1` [Example 246, 6-[(4-Methylpiperazin-1-yl)carbonyl]-3-(phenylamino)-2-[3-(2,2,2-trifluoroethoxy)pyridin-4-yl]-1,5,6,7-tetrahydro-4H-pyrrolo[2,3-c]pyridin-4-one], for which the half-inhibitory concentration (IC50) is 319 nM.

In the case of `CC(=O)Nc1cc(-c2[nH]c3c(c2Nc2ccccc2)C(=O)CN(C(=O)c2ccncc2)C3)ccn1` [Example 116, N-{4-[4-Oxo-3-(phenylamino)-6-(pyridin-4-ylcarbonyl)-4,5,6,7-tetrahydro-1H-pyrrolo[2,3-c]pyridin-2-yl]pyridin-2-yl}acetamide], the half-maximal inhibitory concentration (IC50) was found to be 26 nM.

In the case of `O=C(CC(F)(F)F)Nc1cc(-c2[nH]c3c(c2Nc2ccccc2)C(=O)COC3)ccn1` [Example 36, 3,3,3-Trifluoro-N-{4-[4-oxo-3-(phenylamino)-1,4,5,7-tetrahydropyrano[3,4-b]pyrrol-2-yl]pyridin-2-yl}propanamide], the concentration for half-maximal inhibition (IC50) amounted to 79 nM.

`COC(=O)N1CC(=O)c2c([nH]c(-c3ccnc(NC(=O)[C@@H]4C[C@@H]4F)c3)c2Nc2ccccc2)C1` [Example 205, Methyl 2-[2-([(1S,2S)-2-fluorocyclopropyl]carbonylamino)pyridin-4-yl]-4-oxo-3-(phenylamino)-1,4,5,7-tetrahydro-6H-pyrrolo[2,3-c]pyridine-6-carboxylate]: the IC50 was 3 nM.

Turning to `COc1cnccc1-c1[nH]c2c(c1Nc1ccccc1)C(=O)CN(C(=O)OC(C)(C)C)C2` [Example 102, tert-Butyl 2-(3-methoxypyridin-4-yl)-4-oxo-3-(phenylamino)-1,4,5,7-tetrahydro-6H-pyrrolo[2,3-c]pyridine-6-carboxylate], the half-maximal inhibitory concentration (IC50) worked out at 17 nM.

For `O=C1CN(C(=O)CCO)Cc2[nH]c(-c3ccnc(NC(=O)[C@@H]4C[C@@H]4F)c3)c(Nc3ccccc3)c21` [Example 202, (1S,2S)-2-Fluoro-N-4-[6-(3-hydroxypropanoyl)-4-oxo-3-(phenylamino)-4,5,6,7-tetrahydro-1H-pyrrolo[2,3-c]pyridin-2-yl]pyridin-2-ylcyclopropanecarboxamide], the IC50 was 8 nM.

For `CC(=O)Nc1cc(-c2[nH]c3c(c2Nc2ccccc2)C(=O)CN(C(C)=O)C3)ccn1` [Example 112, N-{4-[6-Acetyl-4-oxo-3-(phenylamino)-4,5,6,7-tetrahydro-1H-pyrrolo[2,3-c]pyridin-2-yl]pyridin-2-yl}acetamide], the concentration for half-maximal inhibition (IC50) is 9 nM.

With `O=C1CN(C(=O)CCO)Cc2[nH]c(-c3ccncc3)c(Nc3ccccc3)c21` [Example 56, 6-(3-Hydroxypropanoyl)-3-(phenylamino)-2-(pyridin-4-yl)-1,5,6,7-tetrahydro-4H-pyrrolo[2,3-c]pyridin-4-one], the IC50 was determined as 5 nM.

For `CC(=O)Nc1cc(-c2[nH]c3c(c2Nc2ccccc2)C(=O)CN(C(=O)c2ccccn2)C3)ccn1` [Example 114, N-{4-[4-Oxo-3-(phenylamino)-6-(pyridin-2-ylcarbonyl)-4,5,6,7-tetrahydro-1H-pyrrolo[2,3-c]pyridin-2-yl]pyridin-2-yl}acetamide], the IC50 was 63 nM.

For `Cn1c2c(c(Nc3ccccc3)c1-c1ccncc1)C(=O)CN(S(C)(=O)=O)C2` [Example 64, 1-Methyl-6-(methylsulfonyl)-3-(phenylamino)-2-(pyridin-4-yl)-1,5,6,7-tetrahydro-4H-pyrrolo[2,3-c]pyridin-4-one], the IC50 stood at 1400 nM.

As for `CC(=O)Nc1cc(-c2[nH]c3c(c2Nc2ccccc2)C(=O)CN(S(=O)(=O)C(C)C)C3)ccn1` [Example 171, N-{4-[3-Anilino-6-(isopropylsulfonyl)-4-oxo-4,5,6,7-tetrahydro-1H-pyrrolo[2,3-c]pyridin-2-yl]pyridin-2-yl}acetamide], the IC50 came to 3 nM.

With `O=C1CN(S(=O)(=O)c2cccnc2)Cc2[nH]c(-c3ccncc3)c(Nc3ccccc3)c21` [Example 75, 3-(phenylamino)-2-(pyridin-4-yl)-6-(pyridin-3-ylsulfonyl)-1,5,6,7-tetrahydro-4H-pyrrolo[2,3-c]pyridin-4-one], the concentration for half-maximal inhibition (IC50) stood at 6 nM.

Turning to `COc1ccc(C(=O)Nc2cc(-c3[nH]c4c(c3Nc3ccccc3)C(=O)CN(C(=O)N3C[C@@H](C)O[C@@H](C)C3)C4)ccn2)cc1F` [Example 292, N-4-[6-[(2R,6S)-2,6-Dimethylmorpholin-4-yl]carbonyl-4-oxo-3-(phenylamino)-4,5,6,7-tetrahydro-1H-pyrrolo[2,3-c]pyridin-2-yl]pyridin-2-yl-3-fluoro-4-methoxybenzamide], the IC50 came to 214 nM.

As for `COCCOc1cnccc1-c1[nH]c2c(c1Nc1ccccc1)C(=O)CNC2` [Example 226, 3-anilino-2-[3-(2-methoxyethoxy)pyridin-4-yl]-1,5,6,7-tetrahydro-4H-pyrrolo[2,3-c]pyridin-4-one], the IC50 was found to be 72 nM.

For `COc1ccc(C(=O)Nc2cc(-c3c(Nc4ccccc4)c4c(n3C)CNCC4=O)ccn2)cc1F` [Example 287, 3-Fluoro-4-methoxy-N-4-[1-methyl-4-oxo-3-(phenylamino)-4,5,6,7-tetrahydro-1H-pyrrolo[2,3-c]pyridin-2-yl]pyridin-2-ylbenzamide], the IC50 amounted to 2060 nM.

For the compound `O=C1CN(C(=O)c2cccnc2)Cc2[nH]c(-c3ccncc3)c(Nc3ccccc3)c21` [Example 62, 3-(phenylamino)-2-(pyridin-4-yl)-6-(pyridin-3-ylcarbonyl)-1,5,6,7-tetrahydro-4H-pyrrolo[2,3-c]pyridin-4-one], the IC50 is 15 nM.
